Experimental data reported in ChEMBL document CHEMBL3875175, “Multi-targeting exploration of new 2-aminothiazolyl quinolones: Synthesis, antimicrobial evaluation, interaction with DNA, combination with topoisomerase IV and penetrability into cells” (Eur J Med Chem, 2016).
Converted amounts (≈) assume the structure as drawn. The source made the active and inactive calls. The calls are words filed in the database; no cut-off is given here.

Legend:
Salmonella typhi [1] = test: Potency index, ratio of chloromycin MIC to compound MIC for Bacillus typhi; format: functional, Salmonella enterica subsp. enterica serovar Typhi
Bos taurus [2] = organism: Bos taurus; test: Binding affinity to calf thymus DNA assessed as DNA intercalation up to 1.75 x 10^-5mol/L by neutral red dye based UV-Visible spectroscopic method
Aspergillus flavus [3] = test: Potency index, ratio of fluconazole MIC80 to compound MIC80 for Aspergillus flavus; format: functional
Pseudomonas aeruginosa = test: Antibacterial activity against Pseudomonas aeruginosa ATCC 27853 after 24 hrs by two fold serial dilution method; format: functional; conditions: ATCC 27853, 24 h
Salmonella typhi [4] = test: Potency index, ratio of norfloxacin MIC to compound MIC for Bacillus typhi; format: functional, Salmonella enterica subsp. enterica serovar Typhi
[5] = Cytotoxicity against mouse L929 cells assessed as reduction in cell viability after 48 hrs by MTT assay; format: toxicity
Escherichia coli [6] = test: Antibacterial activity against Escherichia coli DH52 after 24 hrs by two fold serial dilution method; format: functional; conditions: DH52, 24 h
Staphylococcus aureus [7] = test: Antibacterial activity against methicillin-resistant Staphylococcus aureus N315 after 24 hrs by two fold serial dilution method; format: functional; conditions: N315, 24 h
Candida albicans = test: Antifungal activity against Candida albicans ATCC 76615 after 24 hrs by two fold serial dilution method; format: functional; conditions: ATCC 76615, 24 h
Bos taurus [8] = organism: Bos taurus; test: Binding affinity to calf thymus DNA by UV-Visible spectroscopic method
Bacillus spizizenii = test: Antibacterial activity against Bacillus subtilis ATCC 6633 after 24 hrs by two fold serial dilution method; format: functional; conditions: ATCC 6633, 24 h
Staphylococcus aureus [9] = test: Induction of membrane permeabilization in methicillin-resistant Staphylococcus aureus N315 at 12 times MIC measured for 2 hrs by propidium iodide staining based fluorescence assay; format: functional
Saccharomyces cerevisiae = test: Antifungal activity against Beer yeast after 24 hrs by two fold serial dilution method; format: functional
Shigella dysenteriae = test: Antibacterial activity against Shigella dysenteriae after 24 hrs by two fold serial dilution method; format: functional
Aspergillus flavus [10] = test: Antifungal activity against Aspergillus flavus after 24 hrs by two fold serial dilution method; format: functional
[11] = Antifungal activity against Candida utilis after 24 hrs by two fold serial dilution method; format: functional; conditions: Cyberlindnera jadinii
Proteus vulgaris = test: Antibacterial activity against Bacillus proteus ATCC 13315 after 24 hrs by two fold serial dilution method; format: functional; conditions: ATCC 13315, 24 h
Salmonella typhi [12] = test: Induction of membrane permeabilization in Bacillus typhi at 12 times MIC measured for 2 hrs by propidium iodide staining based fluorescence assay; format: functional; conditions: Salmonella enterica subsp. enterica serovar Typhi
Salmonella typhi [13] = test: Antibacterial activity against Bacillus typhi after 24 hrs by two fold serial dilution method; format: functional, Salmonella enterica subsp. enterica serovar Typhi; conditions: Salmonella enterica
Staphylococcus aureus [14] = test: Antibacterial activity against Staphylococcus aureus ATCC 25923 after 24 hrs by two fold serial dilution method; format: functional; conditions: ATCC 25923, 24 h
[15] = Antifungal activity against Candida mycoderma after 24 hrs by two fold serial dilution method; format: functional; conditions: Pichia norvegensis
Staphylococcus aureus [16] = test: Bactericidal activity against methicillin-resistant Staphylococcus aureus N315 assessed as log reduction in bacterial count at 4 times MIC up to 1 hr by time-kill kinetic assay; format: functional
Staphylococcus aureus [17] = test: Antibacterial activity against methicillin-resistant Staphylococcus aureus N315 after 15 days by serial passage resistance development assay; format: functional
Micrococcus luteus = test: Antibacterial activity against Micrococcus luteus ATCC 4698 after 24 hrs by two fold serial dilution method; format: functional; conditions: NCTC 2665, 24 h
Bos taurus [18] = organism: Bos taurus; test: Binding affinity to calf thymus DNA assessed as hypochromism up to 9 x 10^-5mol/L by UV-Visible spectroscopic method
Escherichia coli [19] = test: Antibacterial activity against Escherichia coli JM109 after 24 hrs by two fold serial dilution method; format: functional; conditions: JM109, 24 h

Compound: C#CCn1cc(-c2cnc(N)s2)c(=O)c2cc(F)cc(F)c21
- Ratio (Salmonella typhi [1]): 32
- Activity (Bos taurus [2]): Active
- Ratio (Aspergillus flavus [3]): 32
- MIC (Pseudomonas aeruginosa): 16 µg/mL (≈ 50.4 µM)
- Ratio (Salmonella typhi [4]): 4
- IC50 at 48 h [5]: 289 µg/mL (≈ 911 µM)
- MIC (Escherichia coli [6]): 16 µg/mL (≈ 50.4 µM)
- MIC (Staphylococcus aureus [7]): 8 µg/mL (≈ 25.2 µM)
- MIC80 (Candida albicans): 16 µg/mL (≈ 50.4 µM)
- K (Bos taurus [8]): 0.538 ×10⁴ L/mol
- MIC (Bacillus spizizenii): 16 µg/mL (≈ 50.4 µM)
- Activity (Staphylococcus aureus [9]): Active
- MIC80 (Saccharomyces cerevisiae): 8 µg/mL (≈ 25.2 µM)
- MIC (Shigella dysenteriae): 8 µg/mL (≈ 25.2 µM)
- MIC80 (Aspergillus flavus [10]): 8 µg/mL (≈ 25.2 µM)
- MIC80 [11]: 32 µg/mL (≈ 101 µM)
- MIC (Proteus vulgaris): 32 µg/mL (≈ 101 µM)
- Activity (Salmonella typhi [12]): Active
- MIC (Salmonella typhi [13]): 1 µg/mL (≈ 3.15 µM)
- MIC (Staphylococcus aureus [14]): 8 µg/mL (≈ 25.2 µM)
- MIC80 [15]: 8 µg/mL (≈ 25.2 µM)
- Activity (Staphylococcus aureus [16]): 3 log10CFU/ml
- Activity (Staphylococcus aureus [17]): Active
- MIC (Micrococcus luteus): 32 µg/mL (≈ 101 µM)
- Activity (Bos taurus [18]): Active
- MIC (Escherichia coli [19]): 32 µg/mL (≈ 101 µM)

Compound: CCCCCCCCCCn1cc(-c2cnc(N)s2)c(=O)c2cc(F)cc(F)c21
- MIC (Pseudomonas aeruginosa): 64 µg/mL (≈ 153 µM)
- MIC (Escherichia coli [6]): 64 µg/mL (≈ 153 µM)
- MIC (Staphylococcus aureus [7]): 256 µg/mL (≈ 610 µM)
- MIC80 (Candida albicans): 64 µg/mL (≈ 153 µM)
- MIC (Bacillus spizizenii): 256 µg/mL (≈ 610 µM)
- MIC80 (Saccharomyces cerevisiae): 64 µg/mL (≈ 153 µM)
- MIC (Shigella dysenteriae): 64 µg/mL (≈ 153 µM)
- MIC80 (Aspergillus flavus [10]): 64 µg/mL (≈ 153 µM)
- MIC80 [11]: 128 µg/mL (≈ 305 µM)
- MIC (Proteus vulgaris): 128 µg/mL (≈ 305 µM)
- MIC (Salmonella typhi [13]): 256 µg/mL (≈ 610 µM)
- MIC (Staphylococcus aureus [14]): 512 µg/mL (≈ 1220 µM)
- MIC80 [15]: 64 µg/mL (≈ 153 µM)
- MIC (Micrococcus luteus): 128 µg/mL (≈ 305 µM)
- MIC (Escherichia coli [19]): 64 µg/mL (≈ 153 µM)

Compound: O=C(N[C@H](CO)[C@H](O)c1ccc([N+](=O)[O-])cc1)C(Cl)Cl [CHLORAMPHENICOL]
- MIC (Pseudomonas aeruginosa): 32 µg/mL (≈ 99 µM)
- MIC (Escherichia coli [6]): 32 µg/mL (≈ 99 µM)
- MIC (Staphylococcus aureus [7]): 16 µg/mL (≈ 49.5 µM)
- MIC (Bacillus spizizenii): 32 µg/mL (≈ 99 µM)
- MIC (Shigella dysenteriae): 16 µg/mL (≈ 49.5 µM)
- MIC (Proteus vulgaris): 32 µg/mL (≈ 99 µM)
- MIC (Salmonella typhi [13]): 32 µg/mL (≈ 99 µM)
- MIC (Staphylococcus aureus [14]): 16 µg/mL (≈ 49.5 µM)
- MIC (Micrococcus luteus): 8 µg/mL (≈ 24.8 µM)
- MIC (Escherichia coli [19]): 32 µg/mL (≈ 99 µM)

Compound: Nc1ncc(-c2cn(Cc3ccc(Cl)cc3)c3c(F)cc(F)cc3c2=O)s1
- MIC (Pseudomonas aeruginosa): 128 µg/mL (≈ 317 µM)
- MIC (Escherichia coli [6]): 64 µg/mL (≈ 158 µM)
- MIC (Staphylococcus aureus [7]): 64 µg/mL (≈ 158 µM)
- MIC80 (Candida albicans): 512 µg/mL (≈ 1270 µM)
- MIC (Bacillus spizizenii): 256 µg/mL (≈ 634 µM)
- MIC80 (Saccharomyces cerevisiae): 128 µg/mL (≈ 317 µM)
- MIC (Shigella dysenteriae): 16 µg/mL (≈ 39.6 µM)
- MIC80 (Aspergillus flavus [10]): 64 µg/mL (≈ 158 µM)
- MIC80 [11]: 256 µg/mL (≈ 634 µM)
- MIC (Proteus vulgaris): 32 µg/mL (≈ 79.2 µM)
- MIC (Salmonella typhi [13]): 32 µg/mL (≈ 79.2 µM)
- MIC (Staphylococcus aureus [14]): 128 µg/mL (≈ 317 µM)
- MIC80 [15]: 256 µg/mL (≈ 634 µM)
- MIC (Micrococcus luteus): 64 µg/mL (≈ 158 µM)
- MIC (Escherichia coli [19]): 128 µg/mL (≈ 317 µM)

Compound: CCn1cc(C(=O)O)c(=O)c2cc(F)c(N3CCNCC3)cc21 [NORFLOXACIN]
- MIC (Pseudomonas aeruginosa): 16 µg/mL (≈ 50.1 µM)
- MIC (Escherichia coli [6]): 1 µg/mL (≈ 3.13 µM)
- MIC (Staphylococcus aureus [7]): 8 µg/mL (≈ 25.1 µM)
- MIC (Bacillus spizizenii): 4 µg/mL (≈ 12.5 µM)
- MIC (Shigella dysenteriae): 16 µg/mL (≈ 50.1 µM)
- MIC (Proteus vulgaris): 8 µg/mL (≈ 25.1 µM)
- MIC (Salmonella typhi [13]): 4 µg/mL (≈ 12.5 µM)
- MIC (Staphylococcus aureus [14]): 2 µg/mL (≈ 6.26 µM)
- MIC (Micrococcus luteus): 2 µg/mL (≈ 6.26 µM)
- MIC (Escherichia coli [19]): 1 µg/mL (≈ 3.13 µM)

Compound: Nc1ncc(-c2cn(Cc3ccc(F)cc3)c3c(F)cc(F)cc3c2=O)s1
- MIC (Pseudomonas aeruginosa): 64 µg/mL (≈ 165 µM)
- MIC (Escherichia coli [6]): 32 µg/mL (≈ 82.6 µM)
- MIC (Staphylococcus aureus [7]): 16 µg/mL (≈ 41.3 µM)
- MIC80 (Candida albicans): 32 µg/mL (≈ 82.6 µM)
- MIC (Bacillus spizizenii): 128 µg/mL (≈ 330 µM)
- MIC80 (Saccharomyces cerevisiae): 32 µg/mL (≈ 82.6 µM)
- MIC (Shigella dysenteriae): 4 µg/mL (≈ 10.3 µM)
- MIC80 (Aspergillus flavus [10]): 32 µg/mL (≈ 82.6 µM)
- MIC80 [11]: 64 µg/mL (≈ 165 µM)
- MIC (Proteus vulgaris): 64 µg/mL (≈ 165 µM)
- MIC (Salmonella typhi [13]): 16 µg/mL (≈ 41.3 µM)
- MIC (Staphylococcus aureus [14]): 32 µg/mL (≈ 82.6 µM)
- MIC80 [15]: 16 µg/mL (≈ 41.3 µM)
- MIC (Micrococcus luteus): 16 µg/mL (≈ 41.3 µM)
- MIC (Escherichia coli [19]): 16 µg/mL (≈ 41.3 µM)

Compound: Nc1ncc(-c2cn(Cc3ccccc3F)c3c(F)cc(F)cc3c2=O)s1
- MIC (Pseudomonas aeruginosa): 128 µg/mL (≈ 330 µM)
- MIC (Escherichia coli [6]): 64 µg/mL (≈ 165 µM)
- MIC (Staphylococcus aureus [7]): 64 µg/mL (≈ 165 µM)
- MIC80 (Candida albicans): 64 µg/mL (≈ 165 µM)
- MIC (Bacillus spizizenii): 64 µg/mL (≈ 165 µM)
- MIC80 (Saccharomyces cerevisiae): 64 µg/mL (≈ 165 µM)
- MIC (Shigella dysenteriae): 32 µg/mL (≈ 82.6 µM)
- MIC80 (Aspergillus flavus [10]): 32 µg/mL (≈ 82.6 µM)
- MIC80 [11]: 128 µg/mL (≈ 330 µM)
- MIC (Proteus vulgaris): 128 µg/mL (≈ 330 µM)
- MIC (Salmonella typhi [13]): 8 µg/mL (≈ 20.7 µM)
- MIC (Staphylococcus aureus [14]): 32 µg/mL (≈ 82.6 µM)
- MIC80 [15]: 64 µg/mL (≈ 165 µM)
- MIC (Micrococcus luteus): 64 µg/mL (≈ 165 µM)
- MIC (Escherichia coli [19]): 64 µg/mL (≈ 165 µM)

Compound: Nc1ncc(-c2cn(Cc3ccccc3Cl)c3c(F)cc(F)cc3c2=O)s1
- MIC (Pseudomonas aeruginosa): 32 µg/mL (≈ 79.2 µM)
- MIC (Escherichia coli [6]): 128 µg/mL (≈ 317 µM)
- MIC (Staphylococcus aureus [7]): 64 µg/mL (≈ 158 µM)
- MIC80 (Candida albicans): 128 µg/mL (≈ 317 µM)
- MIC (Bacillus spizizenii): 256 µg/mL (≈ 634 µM)
- MIC80 (Saccharomyces cerevisiae): 128 µg/mL (≈ 317 µM)
- MIC (Shigella dysenteriae): 64 µg/mL (≈ 158 µM)
- MIC80 (Aspergillus flavus [10]): 64 µg/mL (≈ 158 µM)
- MIC80 [11]: 64 µg/mL (≈ 158 µM)
- MIC (Proteus vulgaris): 256 µg/mL (≈ 634 µM)
- MIC (Salmonella typhi [13]): 128 µg/mL (≈ 317 µM)
- MIC (Staphylococcus aureus [14]): 128 µg/mL (≈ 317 µM)
- MIC80 [15]: 64 µg/mL (≈ 158 µM)
- MIC (Micrococcus luteus): 64 µg/mL (≈ 158 µM)
- MIC (Escherichia coli [19]): 128 µg/mL (≈ 317 µM)
